SMILES | melting point [°C]
Cc1c(C)c2c(c(C)c1O)CCC(COc1ccc(CC3SC(=O)NC3=O)cc1)O2 (stereo unspecified) | 158 to 159
NCc1ccc(Nc2n[nH]c3ncnc(Nc4cccc(Cl)c4)c23)cc1 | 207 to 209
O=C(NCCNCC1COc2ccccc2O1)C12CC3CC(CC(C3)C1)C2 (stereo unspecified) | 147 to 149
Cc1nc(NC(=O)c2nnn(Cc3ccc(Cl)c(Cl)c3)c2C)sc1C(=O)O | 263
CC(C)c1nc2c(c3c1[nH]c1ccccc13)C(=O)CC(C)(C)C2 | 176 to 178
CSc1nnc(Sc2ncnc3c(C)csc23)s1 | 163 to 166
CCNC(=O)c1c(Cl)cccc1NC(C)(C)C | 139 to 140
O=c1cccccc1N1CCN(Cc2ccccc2)CC1 | 78 to 80
COc1ccc(CN2C(=O)C(C)(c3cc(NC=O)ccc3Cl)c3cc(Cl)ccc32)c(OC)c1 (stereo unspecified) | 190
CCOC(=O)CN1CCC(CNC(=O)c2cc(Cl)c(N)[nH]c2=O)CC1 | 162 to 164
CC1CC(c2cccc(Cl)c2)=NNC1=O (stereo unspecified) | 150 to 151
N#CC(C(=O)c1ccncc1)c1ccc(F)cc1 (stereo unspecified) | 230 to 232
CSC(=O)c1cccc2c1[nH]c1ccccc12 | 122 to 123
COc1ccc(Nc2nccc(-c3ccc(Cl)nc3)n2)cn1 | 203 to 205
CC(=O)OCC1Cc2c(C3=C(c4cn(C)c5ccccc45)C(=O)OC3=O)c3ccccc3n2C1 (stereo unspecified) | 208 to 211
C=CCc1cc(OCCOC)ccc1OCC1(O)CN2CCC1CC2 (stereo unspecified) | 58 to 60
COc1cc(C=Cc2cc(=O)n3cccc(C)c3n2)cc(OC)c1OC | 208 to 210
CCOCc1nc2c(N)nc(C)c(C)c2n1CCNS(C)(=O)=O | 185 to 187
CC(O)=C(C#N)C(=O)Oc1ccc(Cl)cc1 | 97 to 100
COC(=O)C1Cc2sc3c(c2C1)C(c1ccccc1Cl)=NCC(=O)N3 (stereo unspecified) | 178 to 181
COc1ccc2c(c1)c(Cc1cc(=O)n(-c3ccc(C)nn3)[nH]1)c(C)n2C(=O)c1ccc(Cl)cc1 | 122 to 124
O=C(Cc1ccc(-c2ccccc2)cc1)NCCc1ccc(OCc2ccccc2)c(OCc2ccccc2)c1 | 142 to 144
CC1CC(=O)c2ccc(F)cc2O1 (stereo unspecified) | 42 to 47
CC(C)(C)C(=O)SC[C@H](NC(=O)C(C)(C)S)C(=O)O | 115 to 117
O=C1Nc2cccnc2N(CC#CCN2CCOCC2)c2ccccc21 | 168
COc1ccnc(CSc2nc3cc4c(cc3[nH]2)OC(F)(F)O4)c1 | 151 to 152

SMILES | melting point [°C]
C#Cc1cccc(Nc2ncnc3[nH]cc(-c4ccc(C)cc4)c23)c1 | 245 to 247
Cc1nc(N)nc(N)c1-c1cc(C#N)ccc1Cl | 239 to 241
COc1ccccc1S(=O)(=O)N(C)c1cccc2cc(C3=NCC(CC(N)=O)S3)[nH]c12 (stereo unspecified) | 227 to 228
O=C(Oc1ccccc1)c1cc(O)c(O)c(O)c1 | 190 to 191
CC(C)(C)OC(=O)NCc1cc(C(C)(C)C)cc(I)c1O | 196 to 197
O=C(NCCN1CCC2(CC1)C(=O)NCN2c1ccccc1)c1cccs1 | 194
CCCc1c(OCc2cccc(C(=O)NCCCc3cccnc3)c2)ccc(C(C)=O)c1O | 110 to 112
O=C(OCc1ccccc1)N1CCC(c2[nH]c(=O)c3ccccc3c2-c2ccccc2)CC1 | 276 to 278
CCCCN1C=CC(N2CCC(F)(c3ccccc3)C(Cl)C2=O)=CC1 (stereo unspecified) | 137
CS(=O)(=O)Cc1nnc(-c2ccc3occ(-c4cccc(OC(F)(F)F)c4)c3c2)o1 | 162 to 163
CCc1cnc(CSc2cnc(NC(C)=O)s2)o1 | 147 to 148
Cc1oc2c(C)cc(C(=O)O)cc2c1C | 235 to 237
COc1ccc2[nH]c3cnc4c(c3c2c1)C(=O)CC(C)(C)C4 | 230 to 231
CCCCc1noc(-c2cccc(NC(=O)N(C)C)c2)n1 | 108 to 110
COC(=O)c1nc(Cl)n2c1CN=C(c1ccccc1Cl)c1cc(Cl)ccc1-2 | 200 to 202
O=c1n(CCO)c2ccccc2n1-c1ccc(F)cc1 | 124 to 126
Nc1cccc(Sc2ccc3c(c2)OCC(=O)N3)c1 | 181 to 182
O=c1c2cccc(O)c2nc(-c2ccc(OCCN3CCCCC3)cc2)n1-c1ccc(O)cc1 | 153 to 155
COC(=O)c1ccc(I)cc1Nc1ccccc1C(=O)O | 206 to 208
Nc1ncccc1-c1nc2cccnc2n1-c1ccc(CNC(=O)c2ccccn2)cc1 | 172 to 174
Nc1cccc(N)c1Oc1ccccc1 | 110 to 111
CCCCCCCCCCCCCCCCCCOc1cc(OCCCCCCc2cccc(O)c2O)cc(C(=O)O)c1 | 92 to 94
CN(c1ccc(Cl)cc1)S(=O)(=O)c1cc(C(=O)Nc2ccc(S(C)=O)cc2)ccn1 (stereo unspecified) | 172 to 174
c1ccc2c(c1)NCCc1nncn1-2 | 162 to 165
CCCCCCCCCCCCCCCCCCC1CNCCNCCNCCNCCN1 (stereo unspecified) | 99 to 100

— a melting point compilation (Tetko et al.; mined from patent text by program, amines drawn as free bases though some values may be those of a salt)
